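Each compound was tested at five concentrations against cells in 96-well plates for 48 hours. The concentration for 50% growth inhibition is given as GI50. The concentration for full growth arrest is given as TGI.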 Where a SMILES comes first, the peptide text is derived from it. The star is where a group is joined. Cbz = O=C(OCc1ccccc1)*; Bn = c1ccc(C*)cc1
Legend:
Assay in all cases: growth of human tumour cells (NCI), 48 h
[1] = tested on: SN12C renal
[2] = tested on: HT29 colon
[3] = tested on: SF-539 CNS
[4] = tested on: U251 CNS
[5] = tested on: NCI-H460 lung
[6] = tested on: SF-268 CNS
[7] = tested on: KM12 colon
[8] = tested on: TK-10 renal
[9] = tested on: LOX IMVI melanoma
[10] = tested on: OVCAR-8 ovarian
[11] = tested on: COLO 205 colon
[12] = tested on: MALME-3M melanoma

Row | SMILES | TGI [1] [µM] | TGI [2] [µM] | TGI [3] [µM] | TGI [4] [µM] | TGI [5] [µM] | TGI [6] [µM] | TGI [7] [µM] | TGI [8] [µM] | TGI [9] [µM] | TGI [10] [µM] | TGI [11] [µM] | TGI [12] [µM] | GI50 [1] [µM] | GI50 [3] [µM] | GI50 [12] [µM] | GI50 [7] [µM] | GI50 [5] [µM] | GI50 [6] [µM] | GI50 [8] [µM] | GI50 [11] [µM]
1 | O=C1c2cccc(O)c2C(=O)c2c(O)cccc21 | > 100 | > 100 | > 100 | > 100 | > 100 | > 100 | > 100 | > 100 | > 100 | > 100 | > 100 |  |  |  |  |  |  |  |  | 
2 | CC1C[C@]2(C[C@@H](C)C(=O)O2)OC2CC3(C)C4CCC5C(C)(C)OC(=O)CC[C@@]56C[C@@]46CC[C@]3(C)C12 (some centres undefined) | > 100 | > 100 | > 100 | > 100 | > 100 | > 100 | > 100 | > 100 | > 100 | > 100 | > 100 | > 100 |  |  |  |  |  |  |  | 
3 | C=CCOCCC(CC=C)C(=O)CC(=O)OC (centres undefined) | > 100 | > 100 | > 100 | > 100 | > 100 | > 100 | > 100 | > 100 | > 100 | > 100 |  | > 100 |  |  |  |  |  |  |  | 
4 | COC(=O)C(Cc1ccc(O)cc1)NC(=O)C(COCc1ccccc1)NC(=O)OCc1ccccc1 (centres undefined) (Cbz-Ser(Bn)-Tyr-OMe; configuration not given here) | 32.7 | 28.6 | 34.2 | 33.5 | 14.3 | 31.9 | 35 | 35.2 | 41 | 31.8 | 31.1 | 39.6 |  |  |  |  |  |  |  | 
5 | C1CSCCSCSCCS1 | > 100 | > 100 | > 100 | > 100 | > 100 | > 100 | > 100 | > 100 | > 100 | > 100 | > 100 |  |  |  |  |  |  |  |  | 
6 | c1ccc(-c2n(Cc3ccc4ccccc4c3)c3ccccc3[n+]2Cc2ccc3ccccc3c2)cc1 | 1.1 |  | 1.29 |  |  |  | 1.2 |  |  |  |  | 0.768 | 0.308 | 0.336 | 0.242 | 0.321 |  |  |  | 
7 | NC(=O)c1ccc([N+](=O)[O-])cc1 | > 100 | > 100 | > 100 | > 100 | > 100 | > 100 | > 100 | > 100 | > 100 | > 100 | > 100 | > 100 |  |  |  |  |  |  |  | 
8 | NC(CCP(=O)(O)O)C(=O)O (centres undefined) | > 100 | > 100 |  | > 100 | > 100 | > 100 | > 100 | > 100 | > 100 | > 100 |  | > 100 |  |  |  |  |  |  |  | 
9 | CCn1c(=O)c(C(=O)O)c(Cl)c2cc3c(cc21)OCO3 | > 100 | > 100 | > 100 | > 100 | > 100 | > 100 | > 100 |  | > 100 | > 100 | > 100 | > 100 |  |  |  |  |  |  |  | 
10 | O=C(Nc1ccc(Cl)cc1)c1cc([N+](=O)[O-])ccc1O | > 50.9 | 29.1 | > 34 | > 70.7 | > 79.8 | 47.7 | 24.5 | > 60.6 | 19.5 | 30.7 | 12.6 | 8.57 |  |  |  |  |  |  |  | 
11 | COc1ccc(N2C(=O)/C(=C\c3ccccc3)SC2c2cc(OC)c(OC)c(OC)c2)cc1 (centres undefined) | > 100 | > 100 |  | > 100 |  | > 100 | > 100 | > 100 | > 100 | > 100 | > 100 | > 100 |  |  |  |  |  |  |  | 
12 | COc1ccc(-c2oc3cc(OC(C)=O)cc(OC(C)=O)c3c(=O)c2OC)cc1 |  | 36.3 |  | 30.6 | 37.5 | 46.9 |  | 70.8 | 27.9 | 53.6 | 33.9 | 65.6 |  |  |  |  |  |  |  | 
13 | N=C(N)c1ccc(-c2ccc(-c3ccc4ccccc4c3)s2)s1 | 3.74 |  | 4.57 |  | 3.7 | 5.5 | 4.08 | 4.77 |  |  | 3.17 | 9.36 | 1.87 | 1.97 | 3.1 | 1.92 | 1.95 | 2.25 | 2.23 | 1.63
14 | CS(=O)(=O)c1ccc2nc(-c3ccc(O)cc3)sc2c1 | 35.5 | 26 | 23.6 | 39.5 | 35.3 | 32.3 | 30.2 | 29.8 | 45.5 | 42.7 | > 100 | 31 |  |  |  |  |  |  |  | 
15 | CC(=O)OCC1OC(NC(=O)N(CCCl)N=O)C(OC(C)=O)C(OC(C)=O)C1OC(C)=O (centres undefined) | > 100 | > 100 | > 100 | > 100 | > 100 | > 100 | > 100 |  | > 100 | > 100 | > 100 | > 100 |  |  |  |  |  |  |  | 
16 | C[n+]1c2ccccc2c(CNCC(=O)O)c2ccccc21 | 2.81 | 12.1 | 5.19 | 12.5 | 14.8 | 1.9 | 11 | 3.06 |  | 7.84 | 2.9 | 28.6 |  |  |  |  |  |  |  | 

From PubChem BioAssay (NCI)
